Earlier results on one compound are cited in US9617305B2 (priority 2011, dated 2017).

Where a SMILES comes first, the peptide text is derived from it. Bridges are numbered along the chain shown (N, C = ends).

For this data set the following is noted: after oral administration at therapeutic dose levels.

Consider `C[C@@H]1NC(=O)[C@@H]2CCCN2C(=O)[C@H](CC(N)=O)NC(=O)[C@@H]2CSSC[C@H](N)C(=O)N[C@H]3CSSC[C@H](NC1=O)C(=O)N[C@@H]([C@@H](C)O)C(=O)NCC(=O)N[C@H](C(=O)N[C@@H](Cc1ccc(O)cc1)C(=O)O)CSSC[C@H](NC(=O)[C@H](Cc1ccc(O)cc1)NC(=O)[C@H](CCC(=O)O)NC3=O)C(=O)N2` [linaclotide, Linaclotide] (H-CCEYCCNPACTGCY-OH; disulfide 1-6, 2-10, 5-13), for which the “levels of linaclotide seen systemically” value is listed as “no detectable levels”.
